# Measurements reported in patent US20040127512A1, “Method of treating symptoms of non-constipated irritable bowel syndrome” (Bradley Pharmaceuticals, Inc., priority 2002, published 2004).
# What was measured:
# [1] = following oral administration; cited from earlier work
# [2] = in vivo; cited from earlier work
# [3] = clinical study of oral methscopolamine bromide as antispasmodic medication in colonoscopy; assay type: in vivo; conditions: 10 mg oral one hour before colonoscopy; 25 patients; control subjects 30%
# Experimental: A clinical study was undertaken with oral methscopolamine bromide as an antispasmodic medication in colonoscopy. The study comprised of 40 non-randomized patients. Thirty patients were given oral methscopolamine bromide prior to the procedure. […] The dose was increased to 10 mg for the following 25 patients. For the purpose of the study, in terms of spasm control a “success” was defined as a colonoscopy where there was no significant spasm on insertion and no intravenous Buscopan® was required. A failure was defined as the requirement of intravenous Buscopan® (antispasmodic). […] The study had both male and female patients.
smiles,measurement,setting,value
C[N+]1(C)[C@@H]2C[C@@H](OC(=O)[C@H](CO)c3ccccc3)C[C@H]1[C@@H]1O[C@@H]12 [methscopolamine bromide],time until drug effects appear,[1],about one
same,ability to cross the blood-brain-barrier,[2],limited ability to cross the blood-brain-barrier
same,route of excretion,[2],"excreted primarily in the urine and bile, or as unabsorbed drug in feces"
same,patients with minimal or no spasm,[3],64%
